This passage reports IC50 results from patent publication US12209091B2, “Isoindolinone derivatives as selective allosteric inhibitors of Egfr mutant cancers” (Hoffmann-La Roche Inc., priority 2018, dated 2025).

This experiment has as its target T1, Phospho EGFR TMLR (H1975 cells) (Homo sapiens, UniProt P00533, L858R/T790M).
T1 construct: H1975 cell line (CRL-5908; Lot BA70803) was obtained from American Type Culture Collection; host or cells: H1975
The experiment can be described thus: HTRF Phospho EGFR TMLR assay (cellular), H1975. Format: cell-based. As to conditions: H1975 cell line, 16 hours compound incubation, Phospho-EGFR HTRF readout. The protocol: HTRF Phospho EGFR TMLR Assay (Cellular)
H1975 cell line (CRL-5908; Lot BA70803) was obtained from American Type Culture Collection (Manassas, VA, USA). Cells were maintained at 37° C., 5% CO2 in complete Media RPMI 1640 without phenol red containing 0.3 mg/ml glutamine, 100 IU/ml penicillin, and […] streptomycin (Gibco, 15140-122) supplemented with 10% fetal bovine serum (FBS, Gibco, 10091-148). Compounds were diluted into starving medium RPMI 1640 Media (Gibco, 11835-030) without phenol red containing 0.3 mg/ml glutamine, 100 IU/ml penicillin, and […] streptomycin (Gibco).
Cells were cultured for 24 h in a 384-well plate (Greiner Bio-One, Nr. 784-080; 5000 cells/well) using 8 μl of complete medium/well. Then 4 μl/well of the 3× compound solution, containing a factor 3 dilution series of the compound or DMSO in starving medium, were added to the cells (final DMSO 0.33%). After 16 hours at 37° C., 5% CO2, 95% rel. humidity cells were lysed by adding to the compound mix 4 μl/well of the supplemented lysis buffer (Cis-bio, Phospho-EGFR HTRF kit, 64EG1PEH), followed by incubation for 30 min at room temperature with shaking (400 rpm). Then 4 μl of a mixture of anti-Phospho-EGFR Cryptate and of anti-Phospho-EGFR-d2 antibody solutions prepared in the detection buffer was added. The plates were then incubated for 4 h at room temperature before reading the fluorescence emission at 620 and 665 nm using an Envision reader (Perkin Elmer).

T1 sequence (P00533 25-1210 T790M/L858R): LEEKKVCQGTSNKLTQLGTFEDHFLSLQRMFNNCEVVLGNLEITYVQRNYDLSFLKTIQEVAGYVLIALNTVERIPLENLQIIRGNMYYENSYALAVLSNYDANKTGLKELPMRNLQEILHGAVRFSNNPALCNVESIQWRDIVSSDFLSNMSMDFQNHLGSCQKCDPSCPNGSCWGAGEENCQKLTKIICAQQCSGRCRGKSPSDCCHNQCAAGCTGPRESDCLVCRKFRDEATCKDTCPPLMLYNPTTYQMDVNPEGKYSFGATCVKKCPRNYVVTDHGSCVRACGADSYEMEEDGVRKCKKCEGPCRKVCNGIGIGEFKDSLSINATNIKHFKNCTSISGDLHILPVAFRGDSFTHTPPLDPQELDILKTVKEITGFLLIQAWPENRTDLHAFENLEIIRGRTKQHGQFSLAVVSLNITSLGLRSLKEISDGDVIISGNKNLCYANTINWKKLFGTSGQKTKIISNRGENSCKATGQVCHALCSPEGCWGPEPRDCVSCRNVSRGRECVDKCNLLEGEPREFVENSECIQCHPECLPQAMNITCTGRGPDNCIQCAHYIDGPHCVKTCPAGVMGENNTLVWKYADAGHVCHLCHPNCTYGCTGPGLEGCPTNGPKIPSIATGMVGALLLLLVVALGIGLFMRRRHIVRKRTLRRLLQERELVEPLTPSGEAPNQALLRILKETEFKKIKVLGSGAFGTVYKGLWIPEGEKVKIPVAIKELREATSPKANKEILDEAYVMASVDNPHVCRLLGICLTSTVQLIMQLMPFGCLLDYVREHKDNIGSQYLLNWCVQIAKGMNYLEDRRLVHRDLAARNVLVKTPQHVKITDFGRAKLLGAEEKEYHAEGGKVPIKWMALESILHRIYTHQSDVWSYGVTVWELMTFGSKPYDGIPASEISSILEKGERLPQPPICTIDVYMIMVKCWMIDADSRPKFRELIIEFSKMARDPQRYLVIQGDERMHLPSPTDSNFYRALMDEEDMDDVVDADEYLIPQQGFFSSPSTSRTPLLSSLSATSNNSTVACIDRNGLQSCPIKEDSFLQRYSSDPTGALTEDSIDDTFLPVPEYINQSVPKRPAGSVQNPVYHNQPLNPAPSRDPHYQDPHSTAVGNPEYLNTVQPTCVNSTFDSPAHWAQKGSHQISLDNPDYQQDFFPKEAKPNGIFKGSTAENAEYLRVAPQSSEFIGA

The compound `O=C(Nc1nccs1)C(c1ncn2c1CCC2)N1Cc2c(F)cc(-c3ccc(N4CCC(O)CC4)cc3)cc2C1=O` (racemic) [Example 7, (2RS)-2-(6,7-Dihydro-5H-pyrrolo[1,2-c]imidazol-1-yl)-2-[4-fluoro-6-[4-(4-hydroxy-1-piperidyl)phenyl]-1-oxo-isoindolin-2-yl]-N-thiazol-2-yl-acetamide] registered an IC50 of 1 nM.
For `CCN1CCN(c2ccc(-c3cc(Cl)c4c(c3)C(=O)N(C(C(=O)Nc3nccs3)c3ncn5c3CCC5)C4)cc2)CC1` (racemic) [Example 6, (2RS)-2-[4-Chloro-6-[4-(4-ethylpiperazin-1-yl)phenyl]-1-oxo-isoindolin-2-yl]-2-(6,7-dihydro-5H-pyrrolo[1,2-c]imidazol-1-yl)-N-thiazol-2-yl-acetamide] the value was 4 nM; for `O=C(Nc1nccs1)C(c1ccn2c1CCC2)N1Cc2c(F)cc(C#Cc3ccc(CN4CCC(O)CC4)cc3)cc2C1=O` (racemic) [Example 10, (2RS)-2-(6,7-Dihydro-5H-pyrrolizin-1-yl)-2-[4-fluoro-6-[2-[4-[(4-hydroxy-1-piperidyl)methyl]phenyl]ethynyl]-1-oxo-isoindolin-2-yl]-N-thiazol-2-yl-acetamide], 8 nM; for `O=C(Nc1nccs1)C(c1ncn2c1CCC2)N1Cc2c(F)cc(C#Cc3ccc(CN4CCCCC4)cc3)cc2C1=O` (racemic) [Example 14, (2RS)-2-(6,7-Dihydro-5H-pyrrolo[1,2-c]imidazol-1-yl)-2-[4-fluoro-1-oxo-6-[2-[4-(1-piperidylmethyl)phenyl]ethynyl]isoindolin-2-yl]-N-thiazol-2-yl-acetamide], 4 nM.
For `O=C(Nc1nccs1)C(c1ncn2c1CCC2)N1Cc2c(Cl)cc(-c3ccc(N4CCC(O)CC4)nc3)cc2C1=O` (racemic) [Example 8, (2RS)-2-[4-Chloro-6-[6-(4-hydroxy-1-piperidyl)-3-pyridyl]-1-oxo-isoindolin-2-yl]-2-(6,7-dihydro-5H-pyrrolo[1,2-c]imidazol-1-yl)-N-thiazol-2-yl-acetamide] the value was 2 nM.
As to `O=C(Nc1nccs1)C(c1ncn2c1CCC2)N1Cc2c(F)cc(C#Cc3ccc(CN4CCC(O)CC4)cc3)c(Cl)c2C1=O` (racemic) [Example 13, (2RS)-2-[7-chloro-4-fluoro-6-[2-[4-[(4-hydroxy-1-piperidyl)methyl]phenyl]ethynyl]-1-oxo-isoindolin-2-yl]-2-(6,7-dihydro-5H-pyrrolo[1,2-c]imidazol-1-yl)-N-thiazol-2-yl-acetamide], the 50% inhibitory concentration (IC50) is 3 nM.
`CCN1CCN(c2ccc(-c3cc(F)c4c(c3)C(=O)N(C(C(=O)Nc3nccs3)c3ncn5c3CCC5)C4)cn2)CC1` (racemic) [Example 4, (2RS)-2-(6,7-Dihydro-5H-pyrrolo[1,2-c]imidazol-1-yl)-2-[6-[6-(4-ethylpiperazin-1-yl)-3-pyridyl]-4-fluoro-1-oxo-isoindolin-2-yl]-N-thiazol-2-yl-acetamide] displayed a half-maximal inhibitory concentration (IC50) of 4 nM.
Compound `O=C(Nc1nccs1)C(c1ncn2c1CCC2)N1Cc2c(F)cc(C#Cc3ccc(CO)cc3)cc2C1=O` (racemic) [Example 12, (2RS)-2-(6,7-Dihydro-5H-pyrrolo[1,2-c]imidazol-1-yl)-2-[4-fluoro-6-[2-[4-(hydroxymethyl)phenyl]ethynyl]-1-oxo-isoindolin-2-yl]-N-thiazol-2-yl-acetamide] had a 50% inhibitory concentration (IC50) of 2 nM.
For `CCN1CCN(c2ccc(-c3cc(F)c4c(c3)C(=O)N(C(C(=O)Nc3nccs3)c3ncn5c3CCC5)C4)cc2)CC1` (racemic) [Example 5, (2RS)-2-(6,7-Dihydro-5H-pyrrolo[1,2-c]imidazol-1-yl)-2-[6-[4-(4-ethylpiperazin-1-yl)phenyl]-4-fluoro-1-oxo-isoindolin-2-yl]-N-thiazol-2-yl-acetamide] the value was 3 nM.
Compound `O=C(Nc1nccs1)C(c1ncn2c1CCC2)N1Cc2c(Cl)cc(-c3ccc(N4CCC(O)CC4)cc3)cc2C1=O` (racemic) [Example 11, (2RS)-2-[4-Chloro-6-[4-(4-hydroxy-1-piperidyl)phenyl]-1-oxo-isoindolin-2-yl]-2-(6,7-dihydro-5H-pyrrolo[1,2-c]imidazol-1-yl)-N-thiazol-2-yl-acetamide] displayed a half-maximal inhibitory concentration (IC50) of 2 nM.
Take `O=C(Nc1nccs1)C(c1ncn2c1CCC2)N1Cc2c(Cl)cc(C#Cc3ccc(CN4CCC(O)CC4)cc3)cc2C1=O` (racemic) [Example 9, (2RS)-2-[4-Chloro-6-[2-[4-[(4-hydroxy-1-piperidyl)methyl]phenyl]ethynyl]-1-oxo-isoindolin-2-yl]-2-(6,7-dihydro-5H-pyrrolo[1,2-c]imidazol-1-yl)-N-thiazol-2-yl-acetamide]: the IC50 was found to be 4 nM.
As for `O=C(Nc1nccs1)C(c1ncn2c1CCC2)N1Cc2c(F)cc(C#Cc3ccc(CN4CCC(O)CC4)cc3)cc2C1=O` (racemic) [Example 2, (2RS)-2-(6,7-Dihydro-5H-pyrrolo[1,2-c]imidazol-1-yl)-2-[4-fluoro-6-[2-[4-[(4-hydroxy-1-piperidyl)methyl]phenyl]ethynyl]-1-oxo-isoindolin-2-yl]-N-thiazol-2-yl-acetamide], half-maximal inhibition (IC50) required 1 nM.
Then `CN1CCN(Cc2ccc(C#Cc3cc(F)c4c(c3)C(=O)N(C(C(=O)Nc3nccs3)c3ncn5c3CCC5)C4)cc2)CC1` (racemic) [Example 1, (2RS)-2-(6,7-Dihydro-5H-pyrrolo[1,2-c]imidazol-1-yl)-2-[4-fluoro-6-[2-[4-[(4-methylpiperazin-1-yl)methyl]phenyl]ethynyl]-1-oxo-isoindolin-2-yl]-N-thiazol-2-yl-acetamide], with 3 nM; and `O=C(Nc1nccs1)C(c1ncn2c1CCC2)N1Cc2c(F)cc(-c3ccc(N4CCNCC4)cc3)cc2C1=O` (racemic) [Example 3, (2RS)-2-(6,7-Dihydro-5H-pyrrolo[1,2-c]imidazol-1-yl)-2-[4-fluoro-1-oxo-6-(4-piperazin-1-ylphenyl)isoindolin-2-yl]-N-thiazol-2-yl-acetamide], with 2 nM.
